From paper PMC11249646, “Small-Molecule Disruptors of the Interaction between Calcium- and Integrin-Binding Protein 1 and Integrin αIIbβ3 as Novel Antiplatelet Agents” (ACS Pharmacology & Translational Science, 2024)
pIC50: −log10 of the molar value. Where two headings read alike, the source gives them in different places. Blank lines part the entries; values can stand above or below the compound they belong to.

Legend:
[1] = target: T1, CIB1 and αIIb interaction (CIB1-GST : F-αIIb peptide) (Homo sapiens, UniProt Q99828); assay: FP assay, 1536-well qHTS format (primary and confirmatory screen); assay type: binding; details: for Curve Class (confirmatory screen) / CONFIRMATORY SCREEN Curve Class: qHTS curve class
T1 construct: made in house; host or cells: BL-21 plus RIL cells (E. coli)
T1 sequence (Q99828 1-191): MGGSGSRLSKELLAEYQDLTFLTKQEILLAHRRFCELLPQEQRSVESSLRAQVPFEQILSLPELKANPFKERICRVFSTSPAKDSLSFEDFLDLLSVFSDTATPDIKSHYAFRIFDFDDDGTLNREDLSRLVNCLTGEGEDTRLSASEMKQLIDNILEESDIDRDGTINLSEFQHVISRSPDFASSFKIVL

[2] = target: T2, GST-CIB1 : F-scrambled peptide (Homo sapiens, UniProt Q99828); assay: FP scrambled-peptide counter screen, 1536-well format; assay type: binding; details: for Confirm? (counterscreen): YES/NO; for Curve Class (counterscreen) / COUNTERSCREEN Curve Class: qHTS curve class; for IC50: read-out: IC50 [μM] (counterscreen)
T2 construct: made in house; host or cells: BL-21 plus RIL cells (E. coli)
T2 sequence (Q99828 1-191): T1 sequence (Q99828 1-191)

[3] = confirmatory screen, negative sign = inhibitory curve
[4] = confirmatory screen, read-out: IC50 [μM] (confirmatory screen)
[5] = qHTS primary screen hits, Table S2, negative = inhibition
[6] = qHTS primary screen hits, Table S2, negative sign = inhibitory curve, several classes where COUNT > 1
[7] = qHTS primary screen hits, Table S2, read-out: IC50
[8] = counterscreen, negative sign = inhibitory curve
[9] = Table S3, confirmatory screen, a negative sign marks inhibitory curves
[10] = Table S3, confirmatory screen, negative = inhibition
[11] = qHTS FP screen hits, Table S2, negative = inhibition
[12] = qHTS FP screen hits, Table S2, one class per curve where COUNT > 1, negative sign = inhibitory curve
[13] = qHTS FP screen hits, Table S2, read-out: IC50
[14] = Table S3, counterscreen, a negative sign marks inhibitory curves
[15] = Table S3, counterscreen, negative = inhibition
[16] = Table S3, confirmatory screen, YES/NO call
[17] = Table S3, confirmatory screen, read-out: IC50 [μM] (confirmatory screen)
[18] = scrambled-peptide counterscreen

Structure (SMILES): CCOC(=O)c1c(-c2ccc(C)o2)csc1NC(=O)CSc1nnnn1-c1ccccc1.O=C(O)C(F)(F)F [NCGC00041785-02]
Efficacy (%) (confirmatory screen) ([1]; confirmatory screen): -47%
Confirm? (confirmatory screen) ([1]; confirmatory screen, YES/NO): YES
Curve Class (confirmatory screen) [1, 3]: -2.2
IC50 [1, 4]: 39.8 µM
Efficacy (%) [1, 5]: -58%
Curve Class [1, 6]: -1.2
pIC50 [1, 7]: 4.55
Efficacy (%) (counterscreen) ([2]; counterscreen): -23%
Confirm? (counterscreen) ([2]; counterscreen): YES
Curve Class (counterscreen) [2, 8]: 4

Structure (SMILES): CC(=O)NC(Cc1ccccc1)C(=O)O (stereo not drawn) [NCGC00042134-05]
Curve Class (confirmatory screen) [1, 9]: 4
Efficacy (%) (confirmatory screen) [1, 10]: 0%
Efficacy (%) [1, 11]: -47%
Curve Class [1, 12]: -2.2
pIC50 [1, 13]: 4.00
Curve Class (counterscreen) [2, 14]: 4
Efficacy (%) (counterscreen) [2, 15]: -35%

Structure (SMILES): CCOC(=O)c1nn(-c2ccc(OC)cc2)c(=O)c2c(N)scc12 [NCGC00053250-03]
Efficacy (%) (confirmatory screen) ([1]; confirmatory screen): -69%
Confirm? (confirmatory screen) ([1]; confirmatory screen, YES/NO): YES
Curve Class (confirmatory screen) [1, 3]: -2.4
IC50 [1, 4]: 70.8 µM
Efficacy (%) [1, 11]: -56%
Curve Class [1, 12]: -1.2
pIC50 [1, 13]: 4.40
Efficacy (%) (counterscreen) ([2]; counterscreen): -59%
Curve Class (counterscreen) [2, 8]: -2.2
IC50 ([2]; counterscreen): 20 µM

Structure (SMILES): COP(=S)(OC)SCN1C(=O)c2ccccc2C1=O [NCGC00080392-05]
Efficacy (%) (confirmatory screen) ([1]; confirmatory screen): -50%
Confirm? (confirmatory screen) ([1]; confirmatory screen, YES/NO): YES
Curve Class (confirmatory screen) [1, 3]: -2.2
IC50 [1, 4]: 50.1 µM
Efficacy (%) [1, 11]: -50%
Curve Class [1, 12]: -1.2
pIC50 [1, 13]: 4.75
Efficacy (%) (counterscreen) ([2]; counterscreen): -33%
Curve Class (counterscreen) [2, 8]: -2.4
IC50 ([2]; counterscreen): 44.7 µM

Structure (SMILES): CC(=O)[O][Hg][c]1ccccc1 [NCGC00091050-09]
Curve Class (confirmatory screen) [1, 9]: 4
Efficacy (%) (confirmatory screen) [1, 10]: 41%
Efficacy (%) [1, 5]: -59%
Curve Class [1, 6]: -1.2
pIC50 [1, 7]: 5.10
Curve Class (counterscreen) [2, 14]: 2.3
Efficacy (%) (counterscreen) [2, 15]: 145%

Structure (SMILES): Oc1ccc(Cl)cc1Cc1cc(Cl)ccc1O [NCGC00091325-09]
Efficacy (%) (confirmatory screen) ([1]; confirmatory screen): -77%
Confirm? (confirmatory screen) ([1]; confirmatory screen, YES/NO): YES
Curve Class (confirmatory screen) [1, 3]: -2.2
IC50 [1, 4]: 44.7 µM
Efficacy (%) [1, 11]: -86%
Curve Class [1, 12]: -2.2
pIC50 [1, 13]: 4.10
Efficacy (%) (counterscreen) ([2]; counterscreen): -38%
Curve Class (counterscreen) [2, 8]: -1.2
IC50 ([2]; counterscreen): 10 µM

Structure (SMILES): CN(C)C(=S)SSC(=S)N(C)C [NCGC00091563-12]
IC50 ([1]; IC50 [μM]): 39.8 µM
CONFIRMATORY SCREEN Confirm? ([1]; confirmatory screen, YES/NO call): YES
CONFIRMATORY SCREEN Curve Class [1, 3]: -1.2
CONFIRMATORY SCREEN Efficacy (%) ([1]; confirmatory screen, negative = inhibition): -67%
pIC50 ([1]; confirmatory screen, read-out: CONFIRMATORY SCREEN IC50): 5.15
Efficacy (%) [1, 11]: -71%
Curve Class [1, 12]: -2.2
COUNTERSCREEN Efficacy (%) [2, 18]: 14%
COUNTERSCREEN Confirm? ([2]; scrambled-peptide counterscreen, YES/NO call): YES
COUNTERSCREEN Curve Class [2, 18]: 4

Structure (SMILES): CCOC(=O)CC(SP(=S)(OC)OC)C(=O)OCC (stereo not drawn) [NCGC00091902-08]
Efficacy (%) (confirmatory screen) ([1]; confirmatory screen): -93%
Confirm? (confirmatory screen) ([1]; confirmatory screen, YES/NO): YES
Curve Class (confirmatory screen) [1, 3]: -2.2
IC50 [1, 4]: 100 µM
Efficacy (%) [1, 11]: -52%
Curve Class [1, 12]: -2.2
pIC50 [1, 13]: 3.92
Efficacy (%) (counterscreen) ([2]; counterscreen): -27%
Confirm? (counterscreen) ([2]; counterscreen): YES
Curve Class (counterscreen) [2, 8]: -1.4
IC50 ([2]; counterscreen): 20 µM

Structure (SMILES): O=C1c2ccccc2C(=O)c2c1ccc(O)c2O [NCGC00095227-06]
Confirm? (confirmatory screen) [1, 16]: YES
Curve Class (confirmatory screen) [1, 9]: -1.1
Efficacy (%) (confirmatory screen) [1, 10]: -175%
IC50 [1, 17]: 17.8 µM
Efficacy (%) [1, 11]: -161%
Curve Class [1, 12]: -2.1
pIC50 [1, 13]: 4.45
Curve Class (counterscreen) [2, 14]: -2.1
Efficacy (%) (counterscreen) [2, 15]: -195%
IC50 ([2]; Table S3, counterscreen): 22.4 µM

Next, values leading:

Confirm? (confirmatory screen) [1, 16]: YES
Curve Class (confirmatory screen) [1, 9]: -1.2
Efficacy (%) (confirmatory screen) [1, 10]: -64%
IC50 [1, 17]: 22.4 µM
Curve Class (counterscreen) [2, 14]: -2.2
Efficacy (%) (counterscreen) [2, 15]: -61%
IC50 ([2]; Table S3, counterscreen): 39.8 µM
Structure (SMILES): O=C(O)c1cc(/N=N/c2ccc(S(=O)(=O)Nc3ccccn3)cc2)ccc1O [NCGC00090903-09]

CONFIRMATORY SCREEN Efficacy (%) ([1]; confirmatory screen): -30%
CONFIRMATORY SCREEN Curve Class ([1]; confirmatory screen): 4
COUNTERSCREEN Efficacy (%) ([2]; counterscreen): 0%
COUNTERSCREEN Curve Class ([2]; counterscreen): 4
Structure (SMILES): COc1cc([C@H]2Oc3cc([C@H]4Oc5cc(O)cc(O)c5C(=O)[C@@H]4O)ccc3O[C@@H]2CO)ccc1O [NCGC00091057-05]

Efficacy (%) (confirmatory screen) ([1]; confirmatory screen): -127%
Confirm? (confirmatory screen) ([1]; confirmatory screen, YES/NO): YES
Curve Class (confirmatory screen) [1, 3]: -1.1
IC50 [1, 4]: 50.1 µM
Efficacy (%) [1, 11]: -59%
Curve Class [1, 12]: -2.2
pIC50 [1, 13]: 3.95
Efficacy (%) (counterscreen) ([2]; counterscreen): -105%
Curve Class (counterscreen) [2, 8]: -2.1
IC50 ([2]; counterscreen): 63.1 µM
Structure (SMILES): Nc1ccc(O)c([N+](=O)[O-])c1 [NCGC00091261-03]

Efficacy (%) (confirmatory screen) ([1]; confirmatory screen): -145%
Confirm? (confirmatory screen) ([1]; confirmatory screen, YES/NO): YES
Curve Class (confirmatory screen) [1, 3]: -1.1
IC50 [1, 4]: 35.5 µM
Efficacy (%) [1, 11]: -92%
pIC50 [1, 13]: 3.98
Efficacy (%) (counterscreen) ([2]; counterscreen): -107%
Curve Class (counterscreen) [2, 8]: -1.1
IC50 ([2]; counterscreen): 31.6 µM
Structure (SMILES): CCCC(=O)c1cc(O)c(O)cc1O [NCGC00091839-03]

CONFIRMATORY SCREEN Efficacy (%) ([1]; confirmatory screen): -5.43%
CONFIRMATORY SCREEN Curve Class ([1]; confirmatory screen): 4
Efficacy (%) [1, 5]: -52%
Curve Class [1, 6]: -1.2
pIC50 [1, 7]: 4.70
COUNTERSCREEN Efficacy (%) ([2]; counterscreen): 0%
COUNTERSCREEN Curve Class ([2]; counterscreen): 4
Structure (SMILES): NC(=O)c1ncn([C@@H]2O[C@H](CO)[C@@H](O)[C@H]2O)c1O [NCGC00094087-05]

Efficacy (%) (confirmatory screen) ([1]; confirmatory screen): -95%
Confirm? (confirmatory screen) ([1]; confirmatory screen, YES/NO): YES
Curve Class (confirmatory screen) [1, 3]: -2.2
IC50 [1, 4]: 39.8 µM
Efficacy (%) [1, 5]: -32%
Curve Class [1, 6]: -2.4
pIC50 [1, 7]: 4.57
Efficacy (%) (counterscreen) ([2]; counterscreen): -68%
Curve Class (counterscreen) [2, 8]: -1.2
IC50 ([2]; counterscreen): 12.6 µM
Structure (SMILES): C[C@H](Cc1ccc(O)c(O)c1)[C@@H](C)Cc1ccc(O)c(O)c1 [NCGC00094201-01]

Efficacy (%) (confirmatory screen) ([1]; confirmatory screen): -31%
Confirm? (confirmatory screen) ([1]; confirmatory screen, YES/NO): YES
Curve Class (confirmatory screen) [1, 3]: -3
IC50 [1, 4]: 44.7 µM
Efficacy (%) (counterscreen) ([2]; counterscreen): 82%
Confirm? (counterscreen) ([2]; counterscreen): YES
Curve Class (counterscreen) [2, 8]: 3
IC50 ([2]; counterscreen): 100 µM
Structure (SMILES): NC[C@@H](O)c1ccc(O)c(O)c1.O=C(O)C(O)C(O)C(=O)O [NCGC00094737-04]

Confirm? (confirmatory screen) [1, 16]: YES
Curve Class (confirmatory screen) [1, 9]: -1.2
Efficacy (%) (confirmatory screen) [1, 10]: -67%
IC50 [1, 17]: 39.8 µM
Efficacy (%) [1, 11]: -65%
Curve Class [1, 12]: -2.2
pIC50 [1, 13]: 4.10
Curve Class (counterscreen) [2, 14]: -2.2
Efficacy (%) (counterscreen) [2, 15]: -67%
IC50 ([2]; Table S3, counterscreen): 39.8 µM
Structure (SMILES): Cc1coc2c1C(=O)C(=O)c1c-2ccc2c1CCCC2(C)C [NCGC00095709-08]
